Experimental data taken from patent EP2987533B1, “7-substituted piperazin-1-yl fluoroquinolone compounds, their use in the treatment of cancer, pharmaceutical compositions and a method for preparation” (priority 2014, dated 2016).

What was measured:
Assay in all cases: NCI five-dose SRB growth assay
Type in all cases: cell-based
CCRF-CEM = conditions: Homo sapiens; CCRF-CEM (Leukemia), 48 h
HL-60(TB) = conditions: Homo sapiens; HL-60(TB) (Leukemia), 48 h
MOLT-4 = conditions: Homo sapiens; MOLT-4 (Leukemia), 48 h
PRMI-8226 = conditions: Homo sapiens; PRMI-8226 (Leukemia), 48 h
A549/ATCC = conditions: Homo sapiens; A549/ATCC (Non-Small Cell Lung Cancer), 48 h
HOP-62 = conditions: Homo sapiens; HOP-62 (Non-Small Cell Lung Cancer), 48 h
NCI-H226 = conditions: Homo sapiens; NCI-H226 (Non-Small Cell Lung Cancer), 48 h
HOP-92 = conditions: Homo sapiens; HOP-92 (Non-Small Cell Lung Cancer), 48 h
NCI-H23 = conditions: Homo sapiens; NCI-H23 (Non-Small Cell Lung Cancer), 48 h
NCI-H322M = conditions: Homo sapiens; NCI-H322M (Non-Small Cell Lung Cancer), 48 h
NCI-H460 = conditions: Homo sapiens; NCI-H460 (Non-Small Cell Lung Cancer), 48 h
NCI-H522 = conditions: Homo sapiens; NCI-H522 (Non-Small Cell Lung Cancer), 48 h
COLO 205 = conditions: Homo sapiens; COLO 205 (Colon Cancer), 48 h
HCC-2998 = conditions: Homo sapiens; HCC-2998 (Colon Cancer), 48 h
HCT-116 = conditions: Homo sapiens; HCT-116 (Colon Cancer), 48 h
HT29 = conditions: Homo sapiens, HT-29; HT29 (Colon Cancer), 48 h
SF-268 = conditions: Homo sapiens; SF-268 (CNS Cancer), 48 h
SNB-19 = conditions: Homo sapiens; SNB-19 (CNS Cancer), 48 h
U251 = conditions: Homo sapiens, U-251; U251 (CNS Cancer), 48 h
LOX IMVI = conditions: Homo sapiens; LOX IMVI (Melanoma), 48 h
MALME-3M = conditions: Homo sapiens; MALME-3M (Melanoma), 48 h
MDA-MB-435 = conditions: Homo sapiens; MDA-MB-435 (Melanoma), 48 h
SK-MEL-2 = conditions: Homo sapiens; SK-MEL-2 (Melanoma), 48 h
SK-MEL-28 = conditions: Homo sapiens; SK-MEL-28 (Melanoma), 48 h
UACC-257 = conditions: Homo sapiens; UACC-257 (Melanoma), 48 h
OVCAR-3 = conditions: Homo sapiens; OVCAR-3 (Ovarian Cancer), 48 h
OVCAR-4 = conditions: Homo sapiens; OVCAR-4 (Ovarian Cancer), 48 h
OVCAR-5 = conditions: Homo sapiens; OVCAR-5 (Ovarian Cancer), 48 h
786-0 = conditions: Homo sapiens; 786-0 (Renal Cancer), 48 h
A498 = conditions: Homo sapiens; A498 (Renal Cancer), 48 h
ACHN = conditions: Homo sapiens; ACHN (Renal Cancer), 48 h
CAKI-1 = conditions: Homo sapiens; CAKI-1 (Renal Cancer), 48 h
RXF 393 = conditions: Homo sapiens; RXF 393 (Renal Cancer), 48 h
UO-31 = conditions: Homo sapiens; UO-31 (Renal Cancer), 48 h
PC-3 = conditions: Homo sapiens; PC-3 (Prostate Cancer), 48 h
MDA-MB-231/ATCC = conditions: Homo sapiens; MDA-MB-231/ATCC (Breast Cancer), 48 h
HS 578T = conditions: Homo sapiens; HS 578T (Breast Cancer), 48 h
BT-549 = conditions: Homo sapiens; BT-549 (Breast Cancer), 48 h
MDA-MB-468 = conditions: Homo sapiens; MDA-MB-468 (Breast Cancer), 48 h

SMILES | GI50 (CCRF-CEM) [µM] | GI50 (HL-60(TB)) [µM] | GI50 (MOLT-4) [µM] | GI50 (PRMI-8226) [µM] | GI50 (A549/ATCC) [µM] | GI50 (HOP-62) [µM] | GI50 (NCI-H226) [µM] | GI50 (NCI-H23) [µM] | GI50 (NCI-H460) [µM] | GI50 (NCI-H522) [µM] | GI50 (COLO 205) [µM] | GI50 (HCC-2998) [µM] | GI50 (HCT-116) [µM] | GI50 (HT29) [µM] | GI50 (SF-268) [µM] | GI50 (SNB-19) [µM] | GI50 (U251) [µM] | GI50 (LOX IMVI) [µM] | GI50 (MALME-3M) [µM] | GI50 (MDA-MB-435) [µM] | other results
O=C(O)c1cn(C2CC2)c2cc(N3CCN(S(=O)(=O)c4ccc(Cl)c(Cl)c4)CC3)c(F)cc2c1=O [Compound 3b] | 2.61 | 2.04 | 4 | 2.53 | 3.08 | 4.77 | 3.58 | 2.9 | 3.66 | 1.99 | 3.5 | 4.47 | 3.86 | 3.77 | 4.77 | 3.25 | 3.33 | 1.44 | 2.3 | 2.97 | GI50 (HOP-92): 1.54 µM; GI50 (NCI-H322M): 3.24 µM; GI50 (SK-MEL-2): 3.16 µM; GI50 (SK-MEL-28): 2.67 µM; GI50 (UACC-257): 2.48 µM; GI50 (OVCAR-3): 3.9 µM; GI50 (OVCAR-4): 2.28 µM; GI50 (OVCAR-5): 4.14 µM; GI50 (786-0): 4.02 µM; GI50 (A498): 2.91 µM; GI50 (ACHN): 3.1 µM; GI50 (CAKI-1): 2.71 µM; GI50 (RXF 393): 2.98 µM; GI50 (UO-31): 2.58 µM; GI50 (PC-3): 2.46 µM; GI50 (MDA-MB-231/ATCC): 2.14 µM; GI50 (HS 578T): 4.26 µM; GI50 (BT-549): 2.98 µM; GI50 (MDA-MB-468): 2.25 µM
CCn1cc(C(=O)O)c(=O)c2cc(F)c(N3CCN(S(=O)(=O)c4cccc5ccccc45)CC3)cc21 [Compound 7a] | 3.67 | 2.58 | 4.46 | 2.79 | 2.87 | 4.6 | 3.71 | 3.13 | 3.43 | 2.78 | 2.02 | 4.26 | 3.88 | 3.95 | 4.39 | 3.47 | 3.29 | 1.63 | 2.83 | 3.13 | GI50 (HOP-92): 1.25 µM; GI50 (NCI-H322M): 2.6 µM; GI50 (SK-MEL-2): 3.55 µM; GI50 (SK-MEL-28): 6.09 µM; GI50 (UACC-257): 2.72 µM; GI50 (OVCAR-3): 3.69 µM; GI50 (OVCAR-4): 2.6 µM; GI50 (OVCAR-5): 3.38 µM; GI50 (786-0): 4.5 µM; GI50 (A498): 2.74 µM; GI50 (ACHN): 2.88 µM; GI50 (CAKI-1): 2.33 µM; GI50 (RXF 393): 3.19 µM; GI50 (UO-31): 2.21 µM; GI50 (PC-3): 2.66 µM; GI50 (MDA-MB-231/ATCC): 1.91 µM; GI50 (HS 578T): 2.68 µM; GI50 (BT-549): 3.7 µM; GI50 (MDA-MB-468): 2.52 µM
CCn1cc(C(=O)O)c(=O)c2cc(F)c(N3CCN(S(=O)(=O)c4ccc(Cl)cc4)CC3)cc21 [Compound 1a] | 2.93 | 2.18 | 3.83 | 3.08 | 2.81 | 4.47 | 3.02 | 2.67 | 3.16 | 1.73 | 2.62 | 4.1 | 3.18 | 2.64 | 3.85 | 3.97 | 3.1 | 2.4 | 1.99 | 2.47 | GI50 (SK-MEL-2): 2.57 µM; GI50 (SK-MEL-28): 4.88 µM; GI50 (UACC-257): 2.16 µM; GI50 (OVCAR-3): 3.51 µM; GI50 (OVCAR-4): 2.2 µM; GI50 (OVCAR-5): 4.25 µM; GI50 (786-0): 3.77 µM; GI50 (A498): 1.81 µM; GI50 (ACHN): 3.09 µM; GI50 (CAKI-1): 2.75 µM; GI50 (RXF 393): 3.32 µM; GI50 (UO-31): 2.07 µM; GI50 (PC-3): 2.31 µM; GI50 (MDA-MB-231/ATCC): 2.51 µM; GI50 (HS 578T): 4.52 µM; GI50 (BT-549): 2.44 µM; GI50 (MDA-MB-468): 2.1 µM
